In general, IC50 refers to the midpoint of a concentration-inhibition curve. A low value points to greater potency.

Entries after “also recorded” stand apart in the source; their conditions may differ. Bridge positions count the residues as written; N and C are the ends. Ends that are not written are not given here. Peptide text beside a SMILES is read from it.

Results on 14 molecules are retold here after patent US20090299044A1 (priority 2006, published 2009).

One test addresses human Kv1.1 (Homo sapiens, UniProt Q09470). In words: cell-based. The arrangement: expressed in transfected cells; host or cells: HEK293.
The test system of test [1] is IL-2 production, human whole blood. In kind it is cell-based.
Another test addresses T1, human Kv1.1 (HEK293) (Homo sapiens, UniProt Q09470).
T1 construct: expressed in transfected cells; host or cells: HEK293
Briefly: cell-based.

For another test, the target named is T2, human Kv1.3 (CHO) (Homo sapiens, UniProt P22001).
T2 construct: expressed in transfected cells; host or cells: CHO
T2 sequence (P22001 whole entry): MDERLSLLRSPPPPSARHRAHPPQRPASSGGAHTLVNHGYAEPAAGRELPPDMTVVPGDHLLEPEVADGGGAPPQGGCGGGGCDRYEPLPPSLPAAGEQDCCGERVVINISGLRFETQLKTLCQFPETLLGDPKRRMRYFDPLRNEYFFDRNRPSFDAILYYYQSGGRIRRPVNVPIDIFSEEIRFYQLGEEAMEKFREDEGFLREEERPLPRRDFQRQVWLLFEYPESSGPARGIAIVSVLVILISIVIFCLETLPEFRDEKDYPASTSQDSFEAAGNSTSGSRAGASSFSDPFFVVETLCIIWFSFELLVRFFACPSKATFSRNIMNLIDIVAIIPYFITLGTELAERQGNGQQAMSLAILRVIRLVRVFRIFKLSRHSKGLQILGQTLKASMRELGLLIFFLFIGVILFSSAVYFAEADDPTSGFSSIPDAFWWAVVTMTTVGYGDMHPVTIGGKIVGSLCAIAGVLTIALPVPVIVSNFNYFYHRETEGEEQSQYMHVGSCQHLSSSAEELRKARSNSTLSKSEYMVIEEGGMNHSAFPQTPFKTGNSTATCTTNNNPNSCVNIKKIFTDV
In words: cell-based.

Test [2] has as its target T3, human Kv1.3 channel (Homo sapiens, UniProt P22001). Briefly: cell-based. In kind it is cell-based.
The target of test [3] is T3, human Kv1.3 channel. Briefly: cell-based or functional assay.

T1 sequence (Q09470 whole entry): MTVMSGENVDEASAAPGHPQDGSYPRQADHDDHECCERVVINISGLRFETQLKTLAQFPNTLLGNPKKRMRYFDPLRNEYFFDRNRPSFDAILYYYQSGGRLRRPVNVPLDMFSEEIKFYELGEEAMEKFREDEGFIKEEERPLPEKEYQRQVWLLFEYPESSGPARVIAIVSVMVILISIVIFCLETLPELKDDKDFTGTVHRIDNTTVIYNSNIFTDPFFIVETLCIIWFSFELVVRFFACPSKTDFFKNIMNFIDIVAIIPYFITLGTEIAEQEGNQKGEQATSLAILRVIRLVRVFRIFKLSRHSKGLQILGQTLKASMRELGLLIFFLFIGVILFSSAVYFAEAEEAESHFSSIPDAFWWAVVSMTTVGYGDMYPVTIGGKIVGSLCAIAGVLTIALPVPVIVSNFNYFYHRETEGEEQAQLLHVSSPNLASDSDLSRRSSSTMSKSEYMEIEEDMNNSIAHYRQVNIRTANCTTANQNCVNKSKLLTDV
Chain of human Kv1.1 (Q09470 whole entry): as above
T3 sequence (P22001 whole entry): as the sequence (P22001 whole entry) above

Take `CC[C@H](C)[C@@H]1NC(=O)[C@H](CCCCN)NC(=O)[C@@H](NC(=O)[C@H](CCCCN)NC(=O)[C@@H](NC(=O)[C@H](CC(N)=O)NC(=O)[C@@H](NC(=O)[C@@H](NC(=O)[C@@H](NC(=O)CN)C(C)C)[C@@H](C)CC)[C@@H](C)CC)C(C)C)CSSC[C@@H]2NC(=O)[C@H](CCCCN)NC(=O)CNC(=O)[C@H](Cc3ccccc3)NC(=O)[C@H](CCCNC(=N)N)NC(=O)[C@H](CCSC)NC(=O)CNC(=O)[C@H](C)NC(=O)[C@H](CCCCN)NC(=O)[C@H](CCCCN)NC(=O)[C@@H]3CSSC[C@@H](C(=O)N[C@H](C(=O)N4CCC[C@H]4C(=O)N[C@@H](CCCCN)C(=O)O)[C@@H](C)O)NC(=O)[C@H](Cc4c[nH]cn4)NC(=O)[C@H](CSSC[C@H](NC(=O)[C@H](CCC(N)=O)NC(=O)[C@H](CCCNC(=N)N)NC(=O)[C@H](CO)NC1=O)C(=O)N[C@@H](CC(C)C)C(=O)N[C@@H](CCC(=O)O)C(=O)N1CCC[C@H]1C(=O)N3)NC(=O)[C@H](CCCCN)NC(=O)CNC(=O)[C@H](CC(N)=O)NC(=O)[C@H](C)NC2=O` [OSK1[Ala-29]] (H-GVIINVKCKISRQCLEPCKKAGMRFGKCANGKCHCTPK-OH; disulfide 8-28, 14-33, 18-35): at human Kv1.1 (IC50 on HEK/Kv1.1), the IC50 worked out at 2700 pM. The “potency relative to cyclosporin A in blocking the cytokine response in human whole blood (in words)” value in test [1] is “several orders of magnitude more potent”.
Turning to `CC[C@H](C)[C@@H]1NC(=O)[C@H](CCCCN)NC(=O)[C@@H](NC(=O)[C@H](CCCCN)NC(=O)[C@@H](NC(=O)[C@H](CC(N)=O)NC(=O)[C@@H](NC(=O)[C@@H](NC(=O)[C@@H](NC(=O)CN)C(C)C)[C@@H](C)CC)[C@@H](C)CC)C(C)C)CSSC[C@@H]2NC(=O)[C@H](CCCCN)NC(=O)CNC(=O)[C@H](Cc3ccccc3)NC(=O)[C@H](CCCNC(=N)N)NC(=O)[C@H](CCSC)NC(=O)CNC(=O)[C@H](C)NC(=O)[C@H](CCCCN)NC(=O)[C@H](CCCCN)NC(=O)[C@@H]3CSSC[C@@H](C(=O)N[C@H](C(=O)N[C@@H](CCC(=O)O)C(=O)N[C@@H](CCCCN)C(=O)O)[C@@H](C)O)NC(=O)[C@H](Cc4c[nH]cn4)NC(=O)[C@H](CSSC[C@H](NC(=O)[C@H](CCC(N)=O)NC(=O)[C@H](CCCNC(=N)N)NC(=O)[C@H](CO)NC1=O)C(=O)N[C@@H](CC(C)C)C(=O)N[C@@H](CCC(=O)O)C(=O)N1CCC[C@H]1C(=O)N3)NC(=O)[C@H](CCCCN)NC(=O)CNC(=O)[C@H](CC(N)=O)NC(=O)[C@H](CCSC)NC2=O` [P37E] (H-GVIINVKCKISRQCLEPCKKAGMRFGKCMNGKCHCTEK-OH; disulfide 8-28, 14-33, 18-35), the 50% inhibitory concentration (IC50) at human Kv1.1 (Kv1.1 (IC50, pM)) turned out to be 15700 pM; at human Kv1.1 (HEK293) it was 0.622 nM; on human Kv1.3 (CHO), 0.0627 nM; against human Kv1.3 channel [2], 0.241 nM.
As for `CC[C@H](C)[C@@H]1NC(=O)[C@H](CCCCN)NC(=O)[C@@H](NC(=O)[C@H](CCCCN)NC(=O)[C@@H](NC(=O)[C@H](CC(N)=O)NC(=O)[C@@H](NC(=O)[C@@H](NC(=O)[C@@H](NC(=O)CN)C(C)C)[C@@H](C)CC)[C@@H](C)CC)C(C)C)CSSC[C@@H]2NC(=O)[C@H](CCCCN)NC(=O)CNC(=O)[C@H](Cc3ccccc3)NC(=O)[C@H](CCCNC(=N)N)NC(=O)[C@H](CCSC)NC(=O)CNC(=O)[C@H](C)NC(=O)[C@H](CCCCN)NC(=O)[C@H](CCCCN)NC(=O)[C@@H]3CSSC[C@@H](C(=O)N[C@H](C(=O)N4CCC[C@H]4C(=O)N[C@@H](CCCCN)C(=O)O)[C@@H](C)O)NC(=O)[C@H](Cc4c[nH]cn4)NC(=O)[C@H](CSSC[C@H](NC(=O)[C@H](CCC(N)=O)NC(=O)[C@H](C)NC(=O)[C@H](CO)NC1=O)C(=O)N[C@@H](CC(C)C)C(=O)N[C@@H](CCC(=O)O)C(=O)N1CCC[C@H]1C(=O)N3)NC(=O)[C@H](CCCCN)NC(=O)CNC(=O)[C@H](CC(N)=O)NC(=O)[C@H](CCSC)NC2=O` [R12A] (H-GVIINVKCKISAQCLEPCKKAGMRFGKCMNGKCHCTPK-OH; disulfide 8-28, 14-33, 18-35), the 50% inhibitory concentration (IC50) against human Kv1.1 (Kv1.1 (IC50, pM)) turned out to be 440 pM; against human Kv1.1 (HEK293) it was 0.0559 nM; against human Kv1.3 (CHO), 0.39 nM; against human Kv1.3 channel [2] it was 0.025 nM.
For `CC[C@H](C)[C@@H]1NC(=O)[C@H](CCCCN)NC(=O)[C@@H](NC(=O)[C@H](CCCCN)NC(=O)[C@@H](NC(=O)[C@H](CC(N)=O)NC(=O)[C@@H](NC(=O)[C@@H](NC(=O)[C@@H](NC(=O)CN)C(C)C)[C@@H](C)CC)[C@@H](C)CC)C(C)C)CSSC[C@@H]2NC(=O)[C@H](CCCCN)NC(=O)CNC(=O)[C@H](Cc3ccccc3)NC(=O)[C@H](CCCNC(=N)N)NC(=O)[C@H](CCSC)NC(=O)CNC(=O)[C@H](C)NC(=O)[C@H](CCCCN)NC(=O)[C@H](CCCCN)NC(=O)[C@@H]3CSSC[C@@H](C(=O)N[C@H](C(=O)N4CCC[C@H]4C(=O)N[C@@H](CCCCN)C(=O)O)[C@@H](C)O)NC(=O)[C@H](Cc4c[nH]cn4)NC(=O)[C@H](CSSC[C@H](NC(=O)[C@H](CCC(N)=O)NC(=O)[C@H](CCCNC(=N)N)NC(=O)[C@H](CCCNC(=N)N)NC1=O)C(=O)N[C@@H](CC(C)C)C(=O)N[C@@H](CCC(=O)O)C(=O)N1CCC[C@H]1C(=O)N3)NC(=O)[C@H](CCCCN)NC(=O)CNC(=O)[C@H](CC(N)=O)NC(=O)[C@H](CCSC)NC2=O` [S11R] (H-GVIINVKCKIRRQCLEPCKKAGMRFGKCMNGKCHCTPK-OH; disulfide 8-28, 14-33, 18-35), in that order: 9130 pM, 0.21 nM, 0.0167 nM and 0.04 nM.
In the case of `CC[C@H](C)[C@@H]1NC(=O)[C@H](CCCCN)NC(=O)[C@@H](NC(=O)[C@H](CCCCN)NC(=O)[C@@H](NC(=O)[C@H](CC(N)=O)NC(=O)[C@@H](NC(=O)[C@@H](NC(=O)[C@@H](NC(=O)CN)C(C)C)[C@@H](C)CC)[C@@H](C)CC)C(C)C)CSSC[C@@H]2NC(=O)[C@H](CCCCN)NC(=O)CNC(=O)[C@H](Cc3ccccc3)NC(=O)[C@H](CCCNC(=N)N)NC(=O)[C@H](CCSC)NC(=O)CNC(=O)[C@H](C)NC(=O)[C@H](CCCCN)NC(=O)[C@H](CCCCN)NC(=O)[C@@H]3CSSC[C@@H](C(=O)N[C@@H](CCC(=O)O)C(=O)N4CCC[C@H]4C(=O)N[C@@H](CCCCN)C(=O)O)NC(=O)[C@H](Cc4c[nH]cn4)NC(=O)[C@H](CSSC[C@H](NC(=O)[C@H](CCC(N)=O)NC(=O)[C@H](CCCNC(=N)N)NC(=O)[C@H](CO)NC1=O)C(=O)N[C@@H](CC(C)C)C(=O)N[C@@H](CCC(=O)O)C(=O)N1CCC[C@H]1C(=O)N3)NC(=O)[C@H](CCCCN)NC(=O)CNC(=O)[C@H](CC(N)=O)NC(=O)[C@H](CCSC)NC2=O` [T36E] (H-GVIINVKCKISRQCLEPCKKAGMRFGKCMNGKCHCEPK-OH; disulfide 8-28, 14-33, 18-35), the half-maximal inhibitory concentration (IC50) against human Kv1.1 (Kv1.1 (IC50, pM)) is 83900 pM; on human Kv1.1 (HEK293), greater than 3.33 nM; against human Kv1.3 (CHO) it was 0.161 nM; against human Kv1.3 channel [2] it was 1.92 nM.
The molecule E. coli-derived Fc-L-OSK1 (Fc fusion) registered a Kv1.3 IC50 by WCVC (whole cell patch clamp, HEK293/Kv1.3 cells) in the test with human Kv1.3 channel [3] of 3.2 nM.
Same read-out and setting: next, “E. coli-derived Fc-L-ShK[1-35] (Fc fusion)”: 1.4 nM.
For “E. coli-derived Fc-L-ShK[2-35] (Fc fusion)”, in the test with human Kv1.3 channel [3], the Kv1.3 IC50 by IWQ (IonWorks planar patch clamp, CHO/Kv1.3 cells) was found to be 2.8 nM and the Kv1.3 IC50 by WCVC (whole cell patch clamp, HEK293/Kv1.3 cells) came to 1.3 nM.
In the test with human Kv1.3 channel [3], “E. coli-derived ShK[2-35]-L-Fc (Fc fusion)” gave a Kv1.3 IC50 by IWQ (IonWorks planar patch clamp, CHO/Kv1.3 cells) of 4.9 nM.
In the case of “E. coli-derived Shk[1-35]-L-Fc (Fc fusion)”, the Kv1.3 IC50 by IWQ (IonWorks planar patch clamp, CHO/Kv1.3 cells) with human Kv1.3 channel [3] came out at 2.4 nM.
For “SEQ ID No: 4989: OSK1 analog without beta strand 1 (des 1-7), Table 42 (CKISRQCLKPCKDAGMRFGKCMNGKCHC-NH2; ends and bridges not checked)”, the “blockade of the whole blood cytokine response (IL-2 and IFNg), in words” value (“blockade” below) in test [1] was “retain activity in blocking inflammation”.

B1: PEGylated CH2-OSK1: CH2-OSK1 fusion protein mono-PEGylated with 20 kD methoxy-PEG-aldehyde (conjugate)
chain: MGGHHHHHHGGGPSVFLFPPKPKDTLMISRTPEVTCVVVDVSHEDPEVKFNWYVDGVEVHNAKTKPREEQYNSTYRVVSVLTVLHQDWLNGKEYKCKVSNKALPAPIEKTISGGGGSGGGGSGVIINVKCKISRQCLEPCKKAGMRFGKCMNGKCHCTPK
B1: the “blockade” value in test [1] is “active in blocking inflammation; also recorded: modest blockade”.

B2: FcLoop-L2-ShK-L2: ShK inserted into the human IgG1 Fc-loop with 2-Gly linkers (protein)
chain: MDKTHTCPPCPAPELLGGPSVFLFPPKPKDTLMISRTPEVTCVVVDVSHEDPEVKFNWYVDGVEVHNAKTKPREEQYNSTYRVVSVLTVLHQDWLNGKEYKCKVSNKALPAPIEKTISKAKGQPREPQVYTLPPSRDELGGRSCIDTIPKSRCTAFQCKHSMKYRLSFCRKTCGTCGGTKNQVSLTCLVKGFYPSDIAVEWESNGQPENNYKTTPPVLDSDGSFFLYSKLTVDKSRWQQGNVFSCSVMHEALHNHYTQKSLSLSPGK
modifications: Definition of Artificial Sequence: Synthetic protein
As for B2, the “blockade” value in test [1] is recorded as “potent blockade”.

B3: FcLoop-L2-OsK1-L2: OsK1 inserted into the human IgG1 Fc-loop between Leu139 and Thr140 with 2-Gly linkers (protein)
chain: MDKTHTCPPCPAPELLGGPSVFLFPPKPKDTLMISRTPEVTCVVVDVSHEDPEVKFNWYVDGVEVHNAKTKPREEQYNSTYRVVSVLTVLHQDWLNGKEYKCKVSNKALPAPIEKTISKAKGQPREPQVYTLPPSRDELGGGVIINVKCKISRQCLEPCKKAGMRFGKCMNGKCHCTPKGGTKNQVSLTCLVKGFYPSDIAVEWESNGQPENNYKTTPPVLDSDGSFFLYSKLTVDKSRWQQGNVFSCSVMHEALHNHYTQKSLSLSPGK
modifications: Definition of Artificial Sequence: Synthetic protein
B3: the “blockade” value in test [1] is “potent blockade”.
